Columns and labels:
[1] = system: CD3-induced IL-2 production; test: Inhibition of CD3-induced IL-2 production; format: cell-based
lymphoproliferation = test: Inhibition of lymphoproliferation (colorimetric MTT assay); format: cell-based
Excerpt: Colorimetric Assay (Based on the MTT Test) for the Non-Radioactive Quantification of Cell Proliferation and Survival Ability
MTT is used for the quantitative determination of cell proliferation and activation, for example, in the reaction on growth factors and cytokines such as IL-2 and IL-4 and also for the quantification of the antiproliferative or toxic effects.
The assay is based on the cleavage of yellow tetrazolium salt MTT to give purple-red formazan crystals by metabolically active cells.
The cells, cultured in a 96-hole tissue culture plate, are incubated for about 4 h with yellow MTT solution. After this incubation time, purple-red formazan salt crystals are formed. These salt crystals are insoluble in aqueous solutions, but can be dissolved by addition of solubilizer and by incubation of the plates overnight.
The dissolved formazan product is quantified spectrophotometrically using an ELISA reader. An increase in the number of living cells results in an increase in the total metabolic activity in the sample. This increase correlates directly with the amount of the purple-red formazan crystals formed, which are [sic] measured by the absorption.

recombinant human Cyp B = recombinant human Cyp B (Homo sapiens, UniProt P23284); test: Peptidylprolyl isomerase (PPIase) activity inhibition assay; format: biochemical; conditions: Cyp B incubated with 1 μM substance for 15 min, 10° C.
Chain of recombinant human Cyp B (P23284 34-216): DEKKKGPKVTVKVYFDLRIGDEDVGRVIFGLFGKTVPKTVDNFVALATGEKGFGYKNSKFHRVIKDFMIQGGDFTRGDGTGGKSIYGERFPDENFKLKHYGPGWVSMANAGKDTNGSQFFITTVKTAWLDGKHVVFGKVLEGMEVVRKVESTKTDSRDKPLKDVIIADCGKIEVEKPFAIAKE
Protocol: Assays for the Determination of Peptidylprolyl Isomerase (PPIase) Activity and Inhibition
The PPIase activity of the cyclophilins was measured enzymatically according to Fischer et al. (1984). After isomerization of the substrate by the peptidyl prolyl isomerase, this is accessible to chymotrypsin, which cleaves the chromophore p-nitroaniline. For the determination of inhibition of the PPIase activity by substance, recombinant human Cyp B was used. The interaction of Cyp B with a potential inhibitor was carried out as follows:
A certain concentration of purified Cyp B was incubated with 1 μM substance for 15 min. The PPIase reaction was started by addition of the substrate solution to the reaction mixture which contains HEPES buffer, chymotrypsin and either test or control samples. Under these conditions, first-order kinetics were obtained with a constant Kobserved=K0+Kenz, where K0 is the spontaneous isomerization and Kenz is the rate of isomerization of the PPIase activity. The extinction values which correspond to the amount of the chromophore cleaved were measured using a Beckman DU 70 spectrophotometer at a constant reaction temperature of 10° C.
The observed residual activity in the presence of various substances was compared with the cyclophilins only treated with solvent. The results were given in % residual activity. Cyclosporin A (CsA) was used as the reference compound. […]

[2] = system: "late phase" eosinophilia in the BAL; test: Inhibition of the "late phase" eosinophilia in the BAL 24 hours after allergen challenge in guinea pigs; format: in vivo
Protocol: Inhibition of the “Late Phase” eosinophilia in the BAL 24 Hours after Allergen Challenge in Guinea Pigs
Male guinea pigs (200-250 g, Dunkin Hartley Shoe) were actively sensitized subcutaneously with ovalbumin (10 μg of ovalbumin+1 mg of Al(OH)3) and boosted 2 weeks later. One week after boosting with ovalbumin, the animals were exposed to an inhalation challenge with ovalbumin (0.5% strength solution) for 20-30 seconds. 24 hours later, the animals were killed by means of an overdose of urethane, exsanguinated and a bronchoalveolar lavage (BAL) was carried out using 2×5 ml of 0.9% strength physiological saline solution.
The lavage fluid was collected and centrifuged at 400 g for 10 minutes, and the pellets were suspended in 1 ml of 0.9% strength physiological saline solution. The eosinophils were counted microscopically in a Neubauer chamber after staining by means of Becton Dickinson test kit No. 5877. This test kit contains Phloxin B as a selective stain for eosinophils. The eosinophils in the BAL was [sic] counted here for each animal and expressed as eosinophils (millions/animal). For each group the mean value and standard deviation were determined. The percentage inhibition of eosinophilia for the group treated with test substance was calculated according to the following formula: (A−B)−(B−C)/(A−C)×100=% inhibition in this formula A eosinophils correspond to the untreated challenge group, B eosinophils to the treated group and C eosinophils to the unchallenged control group.
The animals were treated with a histamine H1 antagonist (azelastine; 0.01 mg/kg p.o.) 2 hours before allergen challenge to avoid death. The administration of the test substances or of the vehicle was carried out 4 hours after allergen challenge.

Structure (SMILES): O=C(Nc1ccncc1)C(=O)c1cn(Cc2ccc(F)cc2)c2ccccc12 [Ex. 1, N-(Pyridin-4-yl)-[1-(4-fluorobenzyl)indol-3-yl]glyoxylamide]
- inhibition at 0.1 µM ([1]; Conc. 0.1 μM): 34%
- inhibition at 1 µM ([1]; Conc. 1 μM): 72%
- inhibition at 10 µM ([1]; Conc. 10 μM): 95%
- inhibition at 0.1 µM (lymphoproliferation; Conc. 0.1 μM): 18%
- inhibition at 1 µM (lymphoproliferation; Conc. 1 μM): 39%
- inhibition at 10 µM (lymphoproliferation; Conc. 10 μM): 61%
- Inhibition of PPIase activity (recombinant human Cyp B): 80-100%
- % Inhibition of the "late phase" eosinophilia 24 h after allergen challenge ([2]; 5 mg/kg i.p. + 4 h after allergen challenge): 27.8%
- % Inhibition of the "late phase" eosinophilia 24 h after allergen challenge ([2]; 10 mg/kg i.p. + 4 h after allergen challenge): 55.4%
- % Inhibition of the "late phase" eosinophilia 24 h after allergen challenge ([2]; 30 mg/kg p.o. + 4 h after allergen challenge): 56.1%

Reference: patent US6919344B2, “N-substituted indole-3-glyoxylamides having anti-asthmatic, antiallergic and immunosuppressant/immuno-modulating action” (ASTA MEDICA, Aktiengesellschaft, priority 1996, dated 2005)
